In patent US5554357A, “Magnetic resonance imaging agents containing hydrazide moieties” (Mallinckrodt Medical, Inc., priority 1994, dated 1996):

Assays:
[1] = T1 relaxivity by spin-echo NMR; format: physicochemical; settings: 90 MHz, H2O/D2O (4:1), six concentrations from 20 mM down; least-square fit of 1/T1 versus concentration, correlation coefficient 0.9994
Description: T1 relaxation times were measured using spin-echo sequence on the JEOL FX90Q (90 MHz) FT-NMR spectrometer/ Twenty millimolar solution of the complex in Example 1 was prepared in H2 O/D2 O (4:1) mixture and was serially diluted to lower concentrations ([…]) with H2 O/D2 O (4:1) mixture. T1 measurements were made at each of these 6 concentrations. The relaxivity (R1) was determined by applying least-square fit to the plot of 1/T1 versus concentration. The relaxivity of the complex in Example 1 was 4.85+0.06 mM^-1 sec^-1. The correlation coefficient for the least squares analysis was 0.9994.

[2] = tested on: ICR mice; experiment: acute intravenous toxicity; format: in vivo, mouse (ICR); settings: single intravenous injection via lateral tail vein, males and females, 7 days observation, 95% Confidence Limits 6.8-19.6 mmol/kg
Description: The acute intravenous toxicity of the compound of Example 1 was determined as follows: ICR mice, at 1 to 4 per dose level, received single intravenous injections of the test substance via a lateral tail vein at the rate of approximately 1 ml/minute. The test substances were at concentrations chosen to result in dose volumes of 5 to 75 ml/kg body weight. Dosing began at a volume of 10 ml/kg. Dose adjustments up or down were made to closely bracket the estimated LD50 with 4 animals per group (2 males and 2 females). Observations of the mice were recorded at times 0, 0.5, 1, 2, 4 and 24 hours and once daily thereafter for up to 7 days post injection. On the 7th day post injection, the mice were euthanized, weighed and necropsied. Abnormal tissues were noted. At this time a decision was made as to whether any histopathology was to be performed and whether or not the tissues should be retained. Necropsies were also performed on mice expiring after 24 hours post-injection, except for dead mice found on the weekends. The LD50 values, along with 95% CI were calculated using a modified Behrens-Reed-Meunch method.

CN(C)NC(=O)CN(CCN(CCN(CC(=O)[O-])CC(=O)NN(C)C)CC(=O)[O-])CC(=O)[O-].O.[Gd+3] [Example 1]
relaxivity (R1) [1]: 4.85 ± 0.06 mM⁻¹ s⁻¹ | LD50 [2]: 11.5 mmol/kg
